Where two headings read alike, the source gives them in different places. Square brackets hold non-standard residues; d marks the D form. Ends that are not written are not given here. Peptide text beside a SMILES is read from it.
Experiments:
[1] = biological target: T1, human CMKLR1 (Homo sapiens, UniProt Q99788); experiment: Ca2+ mobilization (CellLux imaging) agonist assay in HEK293A cells expressing CMKLR1 and Gα15; assay type: cell-based
T1 construct: host or cells: HEK293A (Invitrogen), stably expressing human Gα15
T1 sequence (Q99788 1-373): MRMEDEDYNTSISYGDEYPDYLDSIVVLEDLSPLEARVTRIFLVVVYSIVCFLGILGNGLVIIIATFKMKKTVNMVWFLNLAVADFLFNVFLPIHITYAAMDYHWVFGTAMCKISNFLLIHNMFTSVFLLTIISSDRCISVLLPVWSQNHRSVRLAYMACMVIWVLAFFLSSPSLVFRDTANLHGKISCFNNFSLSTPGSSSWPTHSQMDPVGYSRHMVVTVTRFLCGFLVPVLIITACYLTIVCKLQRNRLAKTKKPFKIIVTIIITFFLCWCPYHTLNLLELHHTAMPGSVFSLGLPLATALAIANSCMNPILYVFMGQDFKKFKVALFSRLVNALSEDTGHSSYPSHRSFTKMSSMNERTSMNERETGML
Summary of the method: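 HEK293A cells co-expressing CMKLR1 and Gα15 were loaded with FLUO4-AM, and peptides were added robotically in C1 buffer (HEPES pH 7.4, 2 mM CaCl2) with 0.1% BSA. Fluorescence changes were read in duplicate wells, buffer-subtracted and normalized to background. EC50 came from amplitude–concentration plots.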

[2] = In vitro peptide stability in human serum (RP-HPLC); settings: for half-life at 50 µg/mL: human; for t1/2: metabolic stability in human serum
Experimental: The initial time is recorded, and at known time intervals 50 µL of the reaction solution is removed and added to 100 µL of 6% aqueous trichloroacetic acid (TCA) for precipitation of serum proteins. […] The reaction supernatant is then analyzed using RP-HPLC (Agilent 1200 LC System) on a ZORBAX Eclipse XDB-C18, 4.6×150 mm, 5 µm column (Agilent). […] Fluorescence is detected at an excitation wavelength of 280 nm and emission wavelength of 340 nm. Kinetic analysis was carried out by least-squares analysis of the logarithm of the integration peak area versus time.

[3] = Ca2+ mobilization, CMKLR1, decimal comma
[4] = Ca2+ mobilization, CMKLR1, decimal comma, NR where no EC50 is given, read-out: EC50
[5] = intracellular calcium mobilization, HEK293 cells expressing CMKLR1, mean of three independent experiments ± SD, read-out: activity: EC50 ±SD

| Compound | max response [1, 3] | EC50 [1, 4] [nM] | half-life at 50 µg/mL ([2]; human serum, 25% (v/v) in RPMI) [min] | t1/2 [2] [min] | EC50 [1, 5] [nM] | max response [1] | half-life at 50 µg/mL ([2]; serum) [min] |
| --- | --- | --- | --- | --- | --- | --- | --- |
| FLPPQFAFF-OH [compound 73] | 0,77 DF/F0 | 3000 | 20 | – | – | – | – |
| FLPGQYAFS-OH [compound 34] | 0,68 DF/F0 | – | – | 28 | – | – | – |
| CC(C)C[C@H](NC(=O)[C@H](N)Cc1ccccc1)C(=O)N1CCC[C@H]1C(=O)NCC(=O)N[C@@H](CCC(N)=O)C(=O)N[C@@H](Cc1ccc(O)cc1)C(=O)N[C@@H](C)C(=O)N[C@@H](Cc1ccccc1)C(=O)N[C@H](Cc1ccccc1)C(=O)O [fLPGQYAFf] (H-[dF]LPGQYAF[dF]-OH; N-terminus assumed) | – | – | 1160 ± 41 | – | 8.2 ± 3.96 | – | – |
| YFPGQFAFG-OH [compound 29] | – | – | – | 13 | – | 1,01 DF/F0 | – |
| CC(C)C[C@H](NC(=O)[C@@H](N)Cc1ccc(O)cc1)C(=O)N1CCC[C@H]1C(=O)NCC(=O)N[C@@H](CCC(N)=O)C(=O)N[C@@H](Cc1ccc(O)cc1)C(=O)N[C@H](Cc1c[nH]c2ccccc12)C(=O)N[C@@H](Cc1ccccc1)C(=O)N[C@H](Cc1ccccc1)C(=O)O [YLPGQYwFf] (H-YLPGQY[dW]F[dF]-OH; N-terminus assumed) | – | – | 159 ± 56 | – | 3.24 ± 1.02 | – | – |
| FLPGQPYFL-OH [compound 65] | 0,91 DF/F0 | 713 | 32 | – | – | – | – |
| CC(C)C[C@H](NC(=O)[C@H](N)Cc1ccc(O)cc1)C(=O)N1CCC[C@H]1C(=O)N[C@H](CO)C(=O)N[C@@H](CCC(N)=O)C(=O)N[C@@H](Cc1ccc(O)cc1)C(=O)N[C@@H](C)C(=O)N[C@@H](Cc1ccccc1)C(=O)N[C@H](Cc1ccccc1)C(=O)O [compound 120] (H-[dY]LP[dS]QYAF[dF]-OH; N-terminus assumed) | 1,97 DF/F0 | – | – | – | – | – | 1690 |
| CC(C)C[C@H](NC(=O)[C@@H](N)Cc1ccc(O)cc1)C(=O)N1CCC[C@H]1C(=O)NCC(=O)N[C@@H](CCC(N)=O)C(=O)N[C@@H](Cc1ccc(O)cc1)C(=O)N[C@H](Cc1c[nH]c2ccccc12)C(=O)N[C@@H](Cc1ccccc1)C(=O)N[C@H](Cc1ccccc1)C(=O)O [compound 122] (H-YLPGQY[dW]F[dF]-OH; N-terminus assumed) | 1,54 DF/F0 | – | – | 159 | – | – | – |
| YFLGQFAFK-OH [compound 76] | 0,65 DF/F0 | 5830 | 16 | – | – | – | – |

The remaining compounds from weak to strong by EC50 [1, 4], led by results:

| max response [1, 3] | EC50 [1, 4] [nM] | half-life at 50 µg/mL ([2]; human serum, 25% (v/v) in RPMI) [min] | t1/2 [2] [min] | EC50 [1, 5] [nM] | Compound | max response [1] | half-life at 50 µg/mL ([2]; serum) [min] |
| --- | --- | --- | --- | --- | --- | --- | --- |
| 1,7 DF/F0 | 129 | 43 | – | – | CC(C)[C@H](N)C(=O)N1CCC[C@H]1C(=O)NCC(=O)N[C@@H](CCC(N)=O)C(=O)N[C@@H](Cc1ccc(O)cc1)C(=O)N[C@@H](C)C(=O)N[C@@H](Cc1ccccc1)C(=O)N[C@H](CO)C(=O)N[C@H](CO)C(=O)O [compound 99] (H-VPGQYAF[dS][dS]-OH; N-terminus assumed) | – | – |
| 1,55 DF/F0 | 104 | 56 | – | – | CC(C)C[C@@H](NC(=O)[C@H](Cc1c[nH]cn1)NC(=O)[C@@H](N)CO)C(=O)NCC(=O)N[C@@H](CCC(N)=O)C(=O)N[C@@H](Cc1ccccc1)C(=O)N[C@H](Cc1c[nH]c2ccccc12)C(=O)N[C@@H](Cc1ccccc1)C(=O)N[C@H](CO)C(=O)O [compound 139] (H-SH[dL]GQF[dW]F[dS]-OH; N-terminus assumed) | – | – |
| 1,62 DF/F0 | 67.4 | 20 | – | – | NC(=O)CC[C@H](NC(=O)CNC(=O)[C@@H]1CCCN1C(=O)[C@H](Cc1ccccc1)NC(=O)[C@H](N)Cc1ccc(O)cc1)C(=O)N[C@@H](Cc1ccc(O)cc1)C(=O)N[C@H](Cc1c[nH]c2ccccc12)C(=O)N[C@@H](Cc1ccccc1)C(=O)N[C@H](Cc1ccccc1)C(=O)O [compound 133] (H-[dY]FPGQY[dW]F[dF]-OH; N-terminus assumed) | – | – |
| 1,54 DF/F0 | 60.9 | 52 | – | – | C[C@H](NC(=O)[C@H](Cc1ccc(O)cc1)NC(=O)[C@H](CCC(N)=O)NC(=O)[C@@H](CO)NC(=O)[C@H](Cc1ccccc1)NC(=O)[C@H](C)NC(=O)[C@@H](N)Cc1ccc(O)cc1)C(=O)N[C@@H](Cc1ccccc1)C(=O)N[C@H](CO)C(=O)O [compound 92] (H-YAF[dS]QYAF[dS]-OH; N-terminus assumed) | – | – |
| 1,82 DF/F0 | 55.7 | 117 | – | – | CC(C)C[C@H](NC(=O)CN)C(=O)N[C@@H](CCC(N)=O)C(=O)N[C@H](CCC(N)=O)C(=O)N[C@@H](Cc1ccccc1)C(=O)N[C@@H](Cc1ccc(O)cc1)C(=O)N[C@H](Cc1c[nH]c2ccccc12)C(=O)NCC(=O)N[C@H](Cc1ccccc1)C(=O)O [compound 132] (H-GLQ[dQ]FY[dW]G[dF]-OH; N-terminus assumed) | – | – |
| 1,76 DF/F0 | 49.2 | 73 | – | – | CC(C)C[C@H](NC(=O)[C@@H](N)Cc1ccccc1)C(=O)N1CCC[C@H]1C(=O)NCC(=O)N[C@@H](CCC(N)=O)C(=O)N[C@@H](Cc1ccccc1)C(=O)N[C@H](Cc1c[nH]c2ccccc12)C(=O)N[C@@H](Cc1ccccc1)C(=O)N[C@H](CO)C(=O)O [compound 89] (H-FLPGQF[dW]F[dS]-OH; N-terminus assumed) | – | – |
| 1,72 DF/F0 | 43.5 | 215 | – | – | CC(C)C[C@H](NC(=O)[C@@H](N)Cc1ccc(O)cc1)C(=O)N1CCC[C@H]1C(=O)N1CCC[C@@H]1C(=O)N1CCC[C@H]1C(=O)N[C@@H](Cc1ccc(O)cc1)C(=O)N[C@@H](C)C(=O)N[C@@H](Cc1ccccc1)C(=O)N[C@H](Cc1ccccc1)C(=O)O [compound 130] (H-YLP[dP]PYAF[dF]-OH; N-terminus assumed) | – | – |
| 0,76 DF/F0 | 9.54 | 15 | – | – | YLPGQFQFS-OH [compound 44] | – | – |
| 1,01 DF/F0 | 5.85 | 24 | – | – | YLPGQFAFL-OH [compound 39] | – | – |
| 1,61 DF/F0 | 3.62 | 77 | – | – | CC(C)C[C@H](NC(=O)[C@H](N)Cc1ccc(O)cc1)C(=O)N1CCC[C@H]1C(=O)NCC(=O)N[C@@H](CCC(N)=O)C(=O)N[C@@H](Cc1ccc(O)cc1)C(=O)N[C@@H](C)C(=O)N[C@@H](Cc1ccccc1)C(=O)N[C@@H](CO)C(=O)O [compound 82] (H-[dY]LPGQYAFS-OH; N-terminus assumed) | – | – |
| 0,97 DF/F0 | 0.77 | 24 | – | – | CC(C)C[C@H](NC(=O)[C@@H](N)Cc1ccc(O)cc1)C(=O)N1CCC[C@H]1C(=O)NCC(=O)N[C@@H](CCC(N)=O)C(=O)N[C@@H](Cc1ccccc1)C(=O)N[C@H](Cc1ccccc1)C(=O)N[C@@H](Cc1ccccc1)C(=O)N[C@@H](CO)C(=O)O [compound 28] (H-YLPGQF[dF]FS-OH; N-terminus assumed) | – | – |
| 1,77 DF/F0 | 0.21 | 36 | – | – | CC(C)C[C@H](NC(=O)[C@@H](N)Cc1ccc(O)cc1)C(=O)N1CCC[C@H]1C(=O)NCC(=O)N[C@@H](CCC(N)=O)C(=O)N[C@@H](Cc1ccc(O)cc1)C(=O)N[C@@H](C)C(=O)N[C@@H](Cc1ccccc1)C(=O)N[C@H](Cc1ccccc1)C(=O)O [compound 80] (H-YLPGQYAF[dF]-OH; N-terminus assumed) | – | – |
